Values quoted from earlier work, collected in patent publication US20220125711A1, “CANNABINOID-CONTAINING ORAL THIN FILM FORMULATIONS” (JDEM Properties, LLC, priority 2020, published 2022).

Test system: Drosophila
Settings: dietary theanine, dose-dependent (Ki and Lim)

SMILES: CCNC(=O)CC[C@H](N)C(=O)O [L-theanine]
- daily amount of sleep: markedly increased
- latency to sleep onset: decreased
